Reference: US5864033A, “Adenosine kinase inhibitors” (priority 1995, dated 1999)
“And” between values parts separate entries of the source, which are not always exact repeats. Equal entries are not always repeated. “Also recorded” adds a separate entry of the source.

Columns and labels:
rat cardiomyocytes = settings: cited from earlier work
[1] = test system: neutrophil adherence to endothelial cells; assay: Inhibition of neutrophil adherence to endothelial cells; format: cell-based, human; settings: for inhibition of neutrophil adhesion to endothelial cells: fMLP-stimulated human neutrophils, 2 hours, 37° C.; for reversal of inhibition of neutrophil adhesion by adenosine deaminase: with adenosine deaminase 0.125 U/ml
Experimental: The ability of an adenosine kinase inhibitor to affect neutrophil adherence to fibroblasts and endothelial cells was evaluated in a cell culture model.
These incubations were carried out in the presence of fMLP-stimulated human neutrophils isolated from whole blood (1.25×10^6 /ml) with or without adenosine deaminase (0.125 U/ml). At the end of the incubation, the medium was removed and the monolayers of fibroblasts or endothelial cells and adherent neutrophils were fixed by addition of formaldehyde (3.7%) and, after washing to remove non-adherent neutrophils, adherent neutrophils were stained with Weigart's hematoxylin and counted under a light microscope.

[2] = test system: pentylenetetrazol (PTZ)-induced seizures in mice; assay: PTZ-induced seizures; format: in vivo, male Swiss Webster mice; settings: for attenuation of chemical and electroshock induced seizures: experimental animal models; for oral anticonvulsant activity: 45 minutes prior to PTZ; for Percent Seizure: 45 min prior to PTZ, N = 7; for Seizure Score: mean ± standard deviation
mice = settings: cited from earlier work
[3] = test system: isolated guinea pig hearts; assay: Improved functional recovery in isolated hearts (low flow ischemia/reperfusion); settings: for Preischemic Flow: Conc. 0.3 (M) as printed; for Functional Recovery: Conc. 0.3 as printed, p < 0.05 vs. Control
Experimental: The ability of a number of adenosine kinase inhibitors to improve the recovery of post-ischemic function was examined in an isolated guinea pig heart model.
Isolated guinea pig hearts were cannulated via the ascending aorta and-attached to a perfusion apparatus according to the method of Langendorff. The hearts were perfused at a constant pressure of 60 cm of H2 O with a modified Krebs-Hanseleit buffer (pH 7.4) at 37° C. Left ventricular developed pressures (LVDP) were monitored continuously using a latex balloon attached to a pressure transducer. Coronary flows were measured gravimetrically by timed collection of pulmonary effluent. Following equilibration of the hearts for a period of 30 minutes, the hearts were subjected to 45 minutes of low flow ischemia, by reducing the perfusion pressure to 10 cm of H2 O, and then reperfused for 30 minutes by restoring the pressure to its original level (60 cm of H2 O). The adenosine kinase inhibitors BP-1-238, GP-1-515 and GP1-547 were added to the perfusion buffer at the final concentrations specified.

anesthetized male dogs = assay: Preclinical model of stable angina (repeated pacing-induced ischemia); format: in vivo, dog; settings: intravenous infusion
Experimental: GP-1-515, was evaluated for its ability to prevent cumulative cardiac dysfunction associated with repeated episodes of pacing-induced ischemia.
Anesthetized male dogs were instrumented to measure regional myocardial wall thickening during right atrial pacing (Young & Mullane, Am. J. Physio., 1991, 261:1570-1577). Animals were subjected to six repeated episodes of pacing. A continuous IV infusion of 1 μg/kg/min of GP-1-515 or saline (control) was administered post pace #1.

[4] = test system: canine coronary thrombosis / cyclic flow reductions; assay: Canine model of platelet-induced coronary thrombosis (Folts; cyclic flow reductions); format: in vivo, dog
Experimental: GP-1-515 was tested in a canine model of platelet-induced coronary thrombosis (Folts, J., Circulation, 1991, 83[Suppl. IV]:IV-3-IV-14). In this model, platelets cyclically aggregate and embolize causing cyclic flow reductions (CFRs) that are quantitated by the frequency and the change in coronary blood flow from low point to peak with each cycle.

[5] = test system: isolated guinea pig ileum longitudinal muscle; assay: Inhibition of contraction in isolated ileum; settings: for inhibition of contraction in the isolated ileum: electrically stimulated; for reversal of inhibition of contraction: with 8-sulfophenyltheophylline (8SPT) or adenosine deaminase (ADA)
Experimental: The ability of adenosine kinase inhibition to affect stimulated contraction of muscle strips from the isolated ileum has been investigated.
Parallel platinum electrodes were used to deliver electrical current at 1 minute intervals at a voltage adequate to induce contraction of 90% of maximal. The adenosine kinase inhibitors, GP-1-515 or GP-1-547 were added to the tissue baths at different concentrations, with or without either the adenosine receptor antagonist, 8-sulphophenyltheophylline (8SPT) or adenosine deaminase (ADA), and the effects on contraction monitored.

isolated rat hearts = settings: normoxic, hypoxic, anoxic or ischemic conditions; alone; cited from earlier work
dog hearts = settings: cited from earlier work
cardiac adenosine kinase = settings: systemic or, in some cases, oral administration
[6] = test system: isolated guinea pig hearts; settings: absence of ADA inhibition; cited from earlier work

OC[C@H]1O[C@@H](n2cnc3c2N=CNC[C@H]3O)C[C@@H]1O [2'-deoxycoformycin]
effect on adenosine release (rat cardiomyocytes; inhibition of adenosine deaminase alone): no effect on adenosine release

C[C@H]1O[C@@H](n2cc(I)c3c(N)ncnc32)[C@H](O)[C@@H]1O [GP-1-456, 5'-deoxy-5-iodotubercidin, reference compound]
inhibition of neutrophil adhesion to endothelial cells [1]: inhibit neutrophil adhesion to endothelial cells; also recorded: dose-dependent inhibition
reversal of inhibition of neutrophil adhesion by adenosine deaminase [1]: reversed by adenosine deaminase treatment; also recorded: reversal of these inhibitions
inhibition of PTZ induced seizures ([2]; IP 1, 5 and 10 mg/kg): dose-dependent inhibition
reversal of inhibition of PTZ induced seizures ([2]; IP […] with theophylline 34 mg/kg or 8-sulfophenyltheophylline 70 mg/kg): reversal of this inhibition by the central adenosine receptor antagonist theophylline but not the peripheral antagonist 8-sulfophenyltheophylline
attenuation of chemical and electroshock induced seizures [2]: potent effects
oral anticonvulsant activity [2]: exhibit oral anticonvulsant activity
flaccidity and locomotor activity (mice): pronounced general flaccidity and much-reduced spontaneous locomotor activity
hypothermia (mice): cause hypothermia

NC[C@H]1O[C@@H](n2nc(Br)c3c(N)ncnc32)[C@H](O)[C@@H]1O [GP-1-515]
Preischemic Flow [3]: 6.5 ± 0.3 mL/min/g
Functional Recovery [3]: 79.0 ± 3.4 % preischemic LVDP
decline in function / wall thickening with pacing-induced ischemia (anesthetized male dogs): attenuates the decline in wall thickening; also recorded: attenuated the decline in function
animals in which CFRs were abolished ([4]; Folts model, dogs): 3 of 8 and 3 out of 8
frequency and change in flow of CFRs where not abolished ([4]; dog, in vivo): reduced both the frequency and the change in flow
inhibition of contraction in the isolated ileum [5]: Inhibition of contraction; also recorded: attenuate contraction; also recorded: dose-dependent inhibition
reversal of inhibition of contraction [5]: reversal by both 8SPT and ADA; also recorded: reversal of these inhibitions

Nc1ncnc2c1c(I)cn2[C@@H]1O[C@H](CO)[C@@H](O)[C@H]1O [5-iodotubercidin]
perfusate adenosine concentration (isolated rat hearts): no increase in perfusate adenosine concentration
effect in ischemia and reperfusion (dog hearts): inconsistent effects
flaccidity and locomotor activity (mice): pronounced general flaccidity and much-reduced spontaneous locomotor activity
hypothermia (mice): cause hypothermia

NC[C@H]1O[C@@H](n2nc(I)c3c(N)ncnc32)[C@H](O)[C@@H]1O [GP-1-547]
Preischemic Flow [3]: 6.2 ± 0.3 mL/min/g
Functional Recovery [3]: 79.0 ± 3.1 % preischemic LVDP
inhibition of contraction in the isolated ileum [5]: Inhibition of contraction; also recorded: attenuate contraction; also recorded: dose-dependent inhibition
reversal of inhibition of contraction [5]: reversal by both 8SPT and ADA; also recorded: reversal of these inhibitions

NC[C@H]1O[C@@H](n2cnc3c(N)ncnc32)[C@H](O)[C@@H]1O [GP-1-238, 5'-amino-5'-deoxyadenosine]
inhibition of cardiac adenosine kinase in vivo (cardiac adenosine kinase): completely inhibited adenosine kinase in vivo
increase in adenosine release (rat cardiomyocytes; together with ADA inhibition): 6 fold
increase of adenosine release without ADA inhibition [6]: not apparent in the absence of ADA inhibition

C[C@H]1O[C@@H](n2nc(I)c3cncnc32)[C@H](O)[C@@H]1O [GP-1-560, 3-iodo-1-(5'-deoxy-B-D-ribofuranosyl)pyrazolo[3,4-d]pyrimidine]
attenuation of chemical and electroshock induced seizures [2]: potent effects
Latency To First Seizure ([2]; oral 30 mg/kg): 4.5 min
Percent Seizure ([2]; oral 30 mg/kg): 71%
Seizure Score ([2]; oral 30 mg/kg): 0.71 ± 0.5
Percent Seizure ([2]; oral 50 mg/kg): 43%
Seizure Score ([2]; oral 50 mg/kg): 1.0 ± 0.9
Latency To First Seizure ([2]; oral 50 mg/kg, p < 0.05 vs. Control): 7.0 min
oral anticonvulsant activity [2]: exhibit oral anticonvulsant activity

CNc1ncnc2c1ncn2[C@@H]1O[C@H](CN)[C@@H](O)[C@H]1O [GP-1-272]
inhibition of neutrophil adhesion to endothelial cells [1]: inhibit neutrophil adhesion to endothelial cells; also recorded: dose-dependent inhibition
reversal of inhibition of neutrophil adhesion by adenosine deaminase [1]: reversed by adenosine deaminase treatment; also recorded: reversal of these inhibitions
